Common to all, as to format: cell-based, human
Series [1] concerns Prm1-directed luciferase expression. Kind of series: Effect of PMA, PD98059 or Vitamin D3 on Prm1-directed luciferase expression in HEL cells. As for the experimental part: HEL and EA.hy 926 cells were co-transfected with the various pGL3Basic-recombinant plasmids (2 mg), encoding firefly luciferase, along with pRL-TK (200 ng), encoding renilla luciferase, using DMRIE-C® transfection reagent. HEK293, WI-38, and 1° hAoSMCs were co-transfected with the pGL3Basic-recombinant plasmids (2 mg), along with pRL-TK (200 ng), using Effectene transfection reagent. In all cases, cells co-transfected with pRL-TK (200 ng) in the presence of either the pGL3Control vector (firefly luciferase gene under the control of the SV40 promoter; 2 mg) or the promoter-less pGL3Basic empty vector (2 mg), which served as positive and negative controls, respectively. […] Relative firefly to renilla luciferase activity (arbitrary units) was calculated as a ratio and was expressed in relative luciferase units (RLU). To investigate the effect of over-expression of exon 5 (+ or −) or KTS (+ or −) isoforms of WT1 on Prm1-directed gene expression, HEL cells were co-transfected with either pGL3b:Prm1 or pGL3b:Prm1D (1.5 μg) plus 200 ng of pRL-TK along with either pcDNA3:WT1 (+/+), pcDNA3:WT1 (+/−), pcDNA3:WT1 (−/+), pcDNA3:WT1 (−/−) (0.5 μg), or as a control, pcDNA3 (0.5 μg). […] The plasmid pCMV5-NAB1, containing the entire coding sequence for NAB1, was generously donated by Dr. Gerald Thiel, University of Saarland Medical Center, Homburg, Germany, and has been described previously (Thiel et al., 2000). To investigate the effect of over-expression of NAB1 on the PMA-mediated induction of Prm1-directed gene expression, HEL cells were transiently co-transfected with pGL3b:Prm1 (2 μg) plus pRL-TK (200 ng) along with either pCMV5 (control) or pCMV:NAB1 (1 μg).

The subject of a further series is Egr1. Kind of series: Immunoblot analysis of Egr1 expression in HEL cells. The following applies: 100 nM PMA plus 10 μM PD98059, 16 h.
The subject of a further series is HEL 92.1.7 cells. The series can be described thus: Dual luciferase genetic reporter assay of promoter-directed luciferase expression in HEL cells. The method, then: HEL and EA.hy 926 cells were co-transfected with the various pGL3Basic-recombinant plasmids (2 mg), encoding firefly luciferase, along with pRL-TK (200 ng), encoding renilla luciferase, using DMRIE-C® transfection reagent. HEK293, WI-38, and 1° hAoSMCs were co-transfected with the pGL3Basic-recombinant plasmids (2 mg), along with pRL-TK (200 ng), using Effectene transfection reagent. In all cases, cells co-transfected with pRL-TK (200 ng) in the presence of either the pGL3Control vector (firefly luciferase gene under the control of the SV40 promoter; 2 mg) or the promoter-less pGL3Basic empty vector (2 mg), which served as positive and negative controls, respectively. Firefly and renilla luciferase expression was assayed some 48 h post-transfection using the Dual-Luciferase Reporter Assay System™, as described (Coyle et al., 2005). Relative firefly to renilla luciferase activity (arbitrary units) was calculated as a ratio and was expressed in relative luciferase units (RLU). To investigate the effect of over-expression of exon 5 (+ or −) or KTS (+ or −) isoforms of WT1 on Prm1-directed gene expression, HEL cells were co-transfected with either pGL3b:Prm1 or pGL3b:Prm1D (1.5 μg) plus 200 ng of pRL-TK along with either pcDNA3:WT1 (+/+), pcDNA3:WT1 (+/−), pcDNA3:WT1 (−/+), pcDNA3:WT1 (−/−) (0.5 μg), or as a control, pcDNA3 (0.5 μg). Cells were harvested 48 h post-transfection and assayed for luciferase activity, as above, or subjected to western blot or RT-PCR analysis. The plasmids pcDNA3:WT1 (+/+), pcDNA3:WT1 (+/−), pcDNA3:WT1 (−/+) and pcDNA3:WT1 (−/−) were generously donated by Dr. Charles T. Roberts JR, Oregon National Primate Research Center, Oregon, USA and have been previously described (Tajinda et al., 1999). For PMA studies, approximately 32 h post-transfection, the medium was supplemented with PMA (100 nM), with PMA (100 nM) and PD98059 (10 μM) or, as a control, with vehicle [0.1% (v/v) DMSO]. After 16 h, cells were assayed for firefly and renilla luciferase using the Dual-Luciferase Reporter Assay System™ as previously described (Coyle et al., 2005). The plasmid pCMV5-NAB1, containing the entire coding sequence for NAB1, was generously donated by Dr. Gerald Thiel, University of Saarland Medical Center, Homburg, Germany, and has been described previously (Thiel et al., 2000). To investigate the effect of over-expression of NAB1 on the PMA-mediated induction of Prm1-directed gene expression, HEL cells were transiently co-transfected with pGL3b:Prm1 (2 μg) plus pRL-TK (200 ng) along with either pCMV5 (control) or pCMV:NAB1 (1 μg). Cells were harvested 48 h post-transfection and assayed for luciferase activity, as above.

Marks after values point to notes of the source that are not given here.

Protocol for Egr1: The expression of WT1, Sp1, Egr1, NF-E2, GATA-1 and Ets-1 proteins in HEL cells was confirmed by western blot analysis. Briefly, whole cell protein was resolved by SDS-PAGE (10% acrylamide gels) and transferred to polyvinylidene difluoride (PVDF) membrane according to standard methodology. […] For PMA studies, HEL cells were pre-incubated for the indicated amount of time with 100 nM PMA, with 10 μM PD98059, with 100 nM PMA plus 10 μM PD98059 or, as a control, with vehicle [0.1% (v/v) DMSO]. Whole cell protein (60 μg per lane) was resolved by SDS-PAGE (10% acrylamide gels) and transferred to polyvinylidene difluoride (PVDF) membrane according to standard methodology.

With `COc1cccc(-c2cc(=O)c3ccccc3o2)c1N` [PD98059, 2-(2-amino-3-methoxyphenyl)-4H-1-benzopyran-4-one], the “Effect on luciferase expression directed by the Prm1K sub-fragment” value in series [1] (100 nM PMA plus 10 μM PD98059, 16 h) is “neither PMA alone (p=0.4721) nor PMA plus PD98059 (p=0.2693) had any significant effect”. Further, in series [1] (100 nM PMA plus 10 μM PD98059, 16 h, 4.3-fold with PMA alone), the “PMA-induction of Prm1-directed luciferase expression in the presence of PD98059” value came out at 2.3 fold. Also, the “Effect on PMA-induction of Egr1 protein expression” value with Egr1 is reported as “completely abolished the PMA-induction of Egr1 protein expression”.

Take `C=C1/C(=C\C=C2/CCC[C@]3(C)[C@@H]([C@H](C)CCCC(C)(C)O)CC[C@@H]23)C[C@@H](O)C[C@@H]1O` [Vitamin D3, 1α, 25-dihydroxy-vitamin D3]: the “Effect on luciferase expression directed by Prm1K” value in series [1] (80 nM Vitamin D3, 24 h or 30 h) is recorded as “no significant effect on luciferase expression directed by Prm1K”. The “Increase in Prm1-directed luciferase expression” value in series [1] (80 nM Vitamin D3, 30 h) stood at 1.6 fold.

B1: Prm1D^WT-1(a, b, x)*: Prm1D-derived promoter with mutations at −6717, −6206 and −6800 (SEQ ID NO:124) (nucleic acid, listed as Homo sapiens)
DNA: GCTCCAAAGCCACCTCCGAGCCTCCTCAAGAGACCCTCCCATGCGATGCCACCACCCCAGCCCTCCCGGCTCACCTGCTCTGGGACCACCTTTCTCAGTCTGGCTGTGTCGTCTGGTGCACCCCCCATCCCTCTGTCCTATCACCCCACCCCTGGAAGGGGCCTCAAATATGTCCTGTATGTATTAAGCAGGGCATACTACTACTGTGTGCCGCGTTCCAGCGCACCCAGTGAATTTGGAGCCCTGGAGTCTGGGCGACCCCCGGGAGCCGATCCGCCTGGACCTGCCCCGCCCCCTCCAGGCCTTGGGTGCTGCCCAGATGGTGAATAATGCGGGCCTGGCGGCGGGAGCGCCGGGAAGAGGCCTGGCAGGGCGCTGGGCGGCTGGAGGGGCTGAGGCTCCCGAGGAAGCGCCCCTGCCACCCCTACGCGGGCCATTGCATCCCTGCCACCGGTGGCCTGGGGGTCCCAAGGGCGCCGCCTTCCCCAGAAGGCTGTAGGGTGTCCCGGCGTGCGGGGGGCACCCACTGACTCCAAGTCAGCCAGGCCCGGGCCCGAGGGGCGTGGCCAGCGCAGGGTGGGCGGGGCTGATGAGAGACAGCGGGAGACAGAGACTGGACGGAGAGAGCGAGCCGCGGGCTGCCAGCGGCCTACACCCGTCCCAGCTCGGCTTAGCCCCCGCGGACCCCTCCAGGCCGCGACCCCAGGGCGTCCTGTGCCGCCACGCCCTCCATCTGTGTGGGTCCTCTGCTGGGCCCGCCCCTGGTCACAGCCAGACTGACTCAGTTTCCCTGGGAGGTCCCGCTCGAGCCCGTCCTTCCCCTCCCTCTGCCCGCCCCCAGCCCTCGCCCCACCCTCGGCGCCCGCACATCTGCCTGCTCAGCTCCAGACGGCGCCCGGACCCCCGGGCGCGGGATCCAGCCAGGTGGGAGCCCCGCAGATGAGGTCTCTGAAG
In the case of B1, the “Statistical significance of luciferase expression vs Prm1D^WT-1(a, b)*” value in the series with HEL 92.1.7 cells (HEL) is “*** (p<0.001)”. For the same molecule, the “Mean firefly relative to renilla luciferase activity” value in the series on HEL 92.1.7 cells (HEL cells, co-transfected with pRL-TK, 48 h post-transfection) worked out at 38.26 RLU. Further, the “Luciferase expression compared with another construct, in words” value in the series on HEL 92.1.7 cells (HEL, comparator as named in the words or parent fragment) is “an even stronger promoter for driving luciferase expression relative to Prm1D^WT1(a)*^(b)*”. In addition, the “Statistical significance of luciferase expression vs Prm1D” value in the series on HEL 92.1.7 cells (HEL, ↑ = increase) is given as “*** (p<0.001)”.

(Values after patent US20110269825A1, “Modified Thromboxane A2 Receptor Promoter Sequence” (priority 2008, published 2011).)
